PMC8152690, “Biosynthetic access to the rare antiarose sugar via an unusual reductase-epimerase” (Chemical Science, 2020)

Legend:
[1] = molecular target: T1, RubS5 (Streptomyces sp. KIB-H033, UniProt A0A1I9S3Q5); assay: HPLC and 1H-NMR of product; assay type: biochemical; conditions: sugar phosphate co-substrate (D-glucose-1-phosphate in text, D-glucose-6-phosphate in Fig. 2 legend)
T1 construct: expressed and purified; rubrolone gene cluster
T1 sequence (A0A1I9S3Q5 1-289): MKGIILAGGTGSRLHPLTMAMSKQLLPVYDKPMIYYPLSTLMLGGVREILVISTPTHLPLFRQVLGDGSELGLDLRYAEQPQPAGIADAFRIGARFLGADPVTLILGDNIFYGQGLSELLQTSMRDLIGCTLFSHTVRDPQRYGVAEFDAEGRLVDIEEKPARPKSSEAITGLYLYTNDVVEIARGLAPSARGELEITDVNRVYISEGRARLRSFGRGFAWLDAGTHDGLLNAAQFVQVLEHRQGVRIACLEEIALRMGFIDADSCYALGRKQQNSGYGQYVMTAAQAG

[2] = tested on: T2, RblE; assay: spectrophotometric assay, decrease of NADPH absorbance; assay type: biochemical
T2 construct: rubterolone gene cluster

| Km [2] | Compound | HPLC and 1H-NMR of product [1] |
| --- | --- | --- |
| – | Cc1cn([C@H]2C[C@H](O)[C@@H](COP(=O)(O)OP(=O)(O)OP(=O)(O)O)O2)c(=O)[nH]c1=O [TTP] | buffer with TTP and D-glucose-6-phosphate. (b) RubS5 reaction |
| 35 µM | Cc1cn([C@H]2C[C@H](O)[C@@H](COP(=O)(O)OP(=O)(O)O[C@H]3O[C@H](C)C(=O)[C@H](O)[C@H]3O)O2)c(=O)[nH]c1=O [compound 1, TDP-4-keto-6-deoxy-D-glucose] | – |
